Key:
[1] = system: dentate gyrus progenitor proliferation; assay: Neurogenesis assay (BrdU positive cells in dentate gyrus); format: in vivo, mouse; settings: 5 mg/kg oral for 21 days, BrdU 50 mg/kg i.p., 2 h
Method: 4′-Dimethylamino-7,8-dihydroxyflavone and 7,8-dihydroxyflavone promote neurogenesis. Male C57BL/6J mice were orally administrated with 5 mg/kg 4′-DMA-7,8-DHF and 7,8-DHF and vehicle solvent for 21 days and followed by 50 mg/kg BrdU ip injection. In 2 h, the mice were perfused and brain sections were immunostained with anti-BrdU and DAPI. The positive cells in dentate gyms were highlighted by arrow (left panels). Quantitative analysis of the BrdU positive cells in dentate gyms (right panel).
Adult male mice (2-3 months old) were orally injected with Saline, 4′-DMA-7,8-DHF and 7,8-DHF (5 mg/kg) for 21 days. Then Brdu (50 mg/kg) was i.p. injected. In 2 h, the mice were perfused with 4% paraformaldehyde. Immunohistochemical staining was performed on formalin-fixed paraffin-embedded sections. Sections from brain were cut, deparaffinized in xylene and rehydrated in graded alcohols. The slides were boiled in 10 mM citric acid (pH 6.0) for 10 min followed by an incubation in 2 N HCl for 10 min in room temperature. The slides were then permeabilized and blocked with 1% BSA in 0.2% PBST. The incorporated BrdU were stained using anti-BrdU-FITC (Abcam, USA) at 4° C. for 16 hr. […] The slides were finally mounted with AquaMount (Lerner Laboratories, USA) containing 0.01% 1,4-diazobicyclo(2,2,2)octane and examined under a fluorescence microscope. […]

active caspase-3 = assay: Active caspase-3 ELISA in glutamate-treated cortical neurons; format: cell-based, rat; settings: 30 min pretreatment, then glutamate 16 h; for caspase-3 activation after glutamate: 50 nM or higher
Method: 4′-Dimethylamino-7,8-dihydroxyflavone prevents neurons from apoptosis in a TrkB-dependent manner. Cortical neurons were prepared from E16 rat embryonic. The neurons were pretreated with different doses of compounds as indicated for 30 min, followed by 50 μM glutamate for 16 h. The cell lysates were analyzed by active caspase-3 ELISA.
To quantitatively compare the anti-apoptotic activity by these two TrkB agonists, cortical neurons were pretreated with various concentrations of 4′-DMA-7,8-DHF and 7,8-DHF for 30 min, followed by […] for 16 h. Cell lysates were quantitatively analyzed with an active caspse-3 ELISA. […] To investigate whether these compounds exert any neuroprotective effects in animals, both compounds (5 mg/kg) were orally injected into mice. At 0, 2 h or 6 h, kainic acid (KA)(20 mg/kg) was administered intraperitoneally. At 2 h, mice were sacrificed and hippocampal regions were prepared. […] This kinetic spectrum tightly coupled to the TrkB activation status observed when treated with 7,8-DHF (FIG. 3C, right panel).

Compound: O=c1cc(-c2ccccc2)oc2c(O)c(O)ccc12 [7,8-DHF, 7,8-dihydroxyflavone, reference compound]
- neurogenesis (BrdU) compared to vehicle control [1]: significantly increased neurogenesis
- caspase-3 activation after glutamate (active caspase-3): substantially blocked caspase-3 activation

Compound: CN(C)c1ccc(-c2cc(=O)c3ccc(O)c(O)c3o2)cc1 [4′-DMA-7,8-DHF, 4′-dimethylamino-7,8-dihydroxyflavone]
- neurogenesis (BrdU) compared to vehicle control [1]: significantly increased neurogenesis
- inhibition of caspase-3 activation after glutamate (active caspase-3; 10 nM): more robust inhibitory effect than 7,8-DHF
- caspase-3 activation after glutamate (active caspase-3): substantially blocked caspase-3 activation

— patent US9504674B2, “TrkB agonists and methods of use” (EMORY UNIVERSITY, priority 2010, dated 2016)
